Measured values: patent US4169899A, “Penicillamine compounds” (Yoshitomi Pharmaceutical Industries, Ltd., priority 1977, dated 1979)
Where two headings read alike, the source gives them in different places.

Legend:
peritoneal macrophages = experiment: Release (secretion) of lysosomal enzymes from macrophages during phagocytosis; type: cell-based; conditions: Rattus norvegicus, Peritoneal macrophage, 0.5 h, serum-treated zymosan, 37° C., 30 minutes
Experimental: (§1) (2) Assay of release of lysosomal enzymes from polymorphonuclear (PMN) leukocytes or macrophages during phagocytosis
Preparation of rat peritoneal macrophages was carried out according to the method described by D. Gemsa et al in "Journal of Clinical Investigation",vol. 52, 812 (1973).
(§2) Lysosomal enzymes were released from PMN leukocytes exposed to homologous serum-treated zymosan particles (0.5-3 μ in diameter, Sigma) according to the method described by M. Nakanishi et al in "Yakugaku Zasshi (Journal of the Pharmaceutical Society of Japan)", vol. 95, 672 (1975).
(§3) The effects of test compounds on the enzyme release were studied by determining the release of lysosomal marker enzymes such as aryl sulfatase.
(§4) The test compounds were dissolved in ethanol. The test solution (10 μl) or solvent (control, 10 μl) was added to a 10-ml conical flask containing 2.0 ml of the PMN leukocyte or macrophage suspension. The mixture was kept at 25° C. for 10 minutes. Immediately after the addition of 50 μl of serum-treated zymosan particles (10 mg/ml) to the above mixture, 1.0-ml aliquots were removed to determine the initial activity of free enzymes in the supernatant. The residual mixtures were incubated at 37° C. for 30 minutes with shaking at an agitation cycle of 75/min, and centrifuged at 350 g for 10 minutes at 4° C. The supernatant thus obtained was used for the measurement of the marker enzymes released from PMN leukocytes or macrophages during phagocytosis. The total activity of these enzymes was assayed using the 27,000 g supernatant obtained by centrifuging the PMN leukocytes or macrophages incubated at 37° C. for 30 minutes in 0.2% (v/v) Triton X-100 - Hanks' solution.

[1] = test system: polymorphonuclear (PMN) leukocytes; experiment: Release (secretion) of lysosomal enzymes from PMN leukocytes during phagocytosis; type: cell-based; conditions: Rattus norvegicus, 0.5 h, serum-treated zymosan, 37° C., 30 minutes
Experimental: as §1
Preparation of rat PMN leukocytes was carried out according to the method described by M. Nakanishi et al in "Yakugaku Zasshi (Journal of the Pharmaceutical Society of Japan)", vol. 95, 1027 (1975).
as §2, §3, §4

[2] = test system: Adjuvant induced arthritis; experiment: Adjuvant induced arthritis in the rat (prophylactic effect); type: in vivo, rat (male Wistar)
Experimental: (3) Adjuvant induced arthritis in the rat
The test was performed according to the method described by B. B. Newbould in "British Journal of Pharmacology", vol. 21, 127 (1963).
Male Wistar rats weighing 180 to 210 g were divided into groups of 8 animals each. The arthritic syndrome was induced by an intradermal injection into the right hind paw of 0.1 ml of a suspension of dead tubercle bacilli (6 mg/ml) in liquid paraffin. Swellings in the hind feet were measured with the fluid displacement method at 4, 10, 15, 18, 21 and 28 days after the adjuvant inoculation. Compounds tested were orally administered daily from the adjuvant inoculation day (day 1) to day 20.

Leukocyte migration = Leukocyte migration in the rat (CMC pouch); type: in vivo, rat (male Donryu); conditions: compound administered into the CMC pouch; for Leukocyte Migration ED50, 5 hr: 5 hr after CMC injection; for Leukocyte Migration ED50, 7 hr: 7 hr after CMC injection
Experimental: (1) Leukocyte migration in the rat
The test was performed according to the method described by H. Ishikawa et al in "Yakugaku Zasshi (Journal of the Pharmaceutical Society of Japan)", vol.
Male Donryu rats weighing about 150 g were divided into groups of 4 to 5 animals each. Five ml of 2% suspension of carboxymethylcellulose (CMC) in physiological saline, which was treated by autoclaving at 120° C. for 15 minutes, was injected subcutaneously in the supra-scapular area. Five and 7 hours later, 0.1 ml of fluid in the CMC pouch was collected and mixed with 3 ml of 0.02% brilliant cresyl blue solution in phosphate buffer (0.002M, pH 7.0). The suspension was put in a Burker chamber and the emigrating leukocytes were counted under a microscope (magnification 400x). The percent inhibition was calculated as compared with the count in the control group. Compounds tested were administered into the CMC pouch immediately after the injection of the CMC suspension.

[3] = read-out: Secretion of Lysosomal Enzyme IC20, Macrophage, Macrophage
[4] = Leukocyte, read-out: Secretion of Lysosomal Enzyme IC20, PMN leukocyte, PMN leukocyte
[5] = po, read-out: Prophylactic Effect on Adjuvant Arthritis MED (minimum effective dose)
[6] = Macrophage, read-out: Secretion of Lysosomal Enzyme IC20, Macrophage
[7] = PMN leukocyte, read-out: Secretion of Lysosomal Enzyme IC20, PMN leukocyte
[8] = oral, daily from day 1 to day 20, read-out: Prophylactic Effect on Adjuvant Arthritis MED (minimum effective dose)

SMILES	IC20 (peritoneal macrophages; [3])	IC20 [1, 4]	minimal effective dose [2, 5]	Leukocyte Migration ED50, 5 hr (Leukocyte migration)	Leukocyte Migration ED50, 7 hr (Leukocyte migration)	IC20 (peritoneal macrophages; [6])	IC20 [1, 7]	minimal effective dose [2, 8]
CC(=O)Oc1ccccc1C(=O)O [AcetylsalicylicAcid, Acetylsalicylic Acid, reference compound]	100 µM	0.1 µM	100 mg/kg	20 mg/rat	> 25 mg/rat	–	–	–
CC(C)(S)[C@@H](N)C(=O)O [D-Penicillamine, D-penicillamine, reference compound]	1 µM	10 µM	> 200 mg/kg	> 40 mg/rat	> 40 mg/rat	–	–	–
CC1(C)SC(=S)N(Cc2ccccc2)C(=O)C1NC(=O)c1ccc(Cl)cc1 (stereo not shown) [Test Compound A, 3-benzyl-5-(p-chlorobenzamido)-6,6-dimethyl-2-thioxo-tetrahydro-2H-1,3-thiazin-4-one]	–	–	–	15 mg/rat	15 mg/rat	> 10 µM	0.2 µM	50 mg/kg
CN(C)CCN1C(=O)C(NC(=O)c2ccc(Cl)cc2)C(C)(C)SC1=S (stereo not shown) [Test Compound B, 5-(p-Chlorobenzamido)-3-(2-dimethylaminoethyl)-6,6-dimethyl-2-thioxotetrahydro-2H-1,3-thiazin-4-one]	–	–	–	2 mg/rat	2 mg/rat	0.2 µM	0.5 µM	25 mg/kg
CN(C)CCN1C(=O)C(NC(=O)c2ccc(Cl)cc2)C(C)(C)SC1=S.Cc1ccc(S(=O)(=O)O)cc1 (stereo not shown) [Test Compound C, 5-(p-Chlorobenzamido)-3-(2-dimethylaminoethyl)-6,6-dimethyl-2-thioxotetrahydro-2H-1,3-thiazin-4-one p-toluenesulfonate]	0.1 µM	1 µM	–	3.5 mg/rat	5 mg/rat	–	–	–
CN(C)CCN1C(=O)C(NC(=O)c2ccc(NS(C)(=O)=O)cc2)C(C)(C)SC1=S.Cc1ccc(S(=O)(=O)O)cc1 (stereo not shown) [Test Compound D, 3-(2-dimethylaminoethyl)-5-(p-methanesulfonamidobenzamido)-6,6-dimethyl-2-thioxo-tetrahydro-2H-1,3-thiazin-4-one p-toluenesulfonate]	0.5 µM	0.3 µM	10 mg/kg	2 mg/rat	5 mg/rat	–	–	–
CN(C)CCNC(=S)SC(C)(C)C(NC(=O)c1ccc(Cl)cc1)C(=O)O (stereo not drawn) [Test Compound E, n-(p-Chlorobenzoyl)-S-(2-dimethylaminoethylthiocarbamoyl)-penicillamine]	–	–	–	2.7 mg/rat	3.6 mg/rat	0.1 µM	1 µM	10 mg/kg
